# Data as given in US20150203526A1, “NOVEL 19-NOR-STEROIDS AND THEIR USE FOR TREATING PROGESTERONE- DEPENDENT CONDITIONS” (REPROS THERAPEUTICS INC., priority 2010, published 2015).
# Like-named read-outs stand apart in the source and are kept apart here.
# What was measured:
# [1] = Oral vs vaginal pharmacokinetics in beagles (25 mg); type: in vivo; conditions: for Metabolism after peak plasma concentration: oral micronized powder; for Metabolism / Peak plasma concentrations (Cmax): vaginal suppository; for Systemic exposure (AUC), local vs oral: vaginal vs oral
# Experimental: FIG. 1 illustrates a comparison of the Cmax (peak serum concentration) and area under the curve (AUC) following oral and vaginal administration of CDB-4124 or CDB-4453 at a 25 mg dose in beagles.
# Beagles were administered 25 mg of CDB-4124 or CDB-4453 (the monodemethylated metabolite of CDB-4124) formulated as either a micronized powder or a vaginal suppository. […] Moreover, systemic exposure of the drug is much lower when administered locally (compare AUC for CDB-4124 and CDB-4453 when administered vaginally vs. orally).
# [2] = Pharmacokinetic studies on clinical trial subjects after oral CDB-4124; type: in vivo, human; conditions: for Maximum concentration for the 12.5 mg dose relative to the 50 mg dose: oral CDB-4124, 12.5 mg vs 50 mg
# Experimental: (§1) The maximum concentrations of CDB-4124 and its mono-demethylated metabolite (CDB-4453) for the 12.5 mg dose were 25% of the 50 mg dose. All liver toxicities resolved in those women that returned for safety follow-ups, including those subjects that developed liver-associated serious adverse effects (SAEs).
# (§2) Pharmacokinetic studies performed on participating subjects detected a high Cmax and a Tmax at 1-2 hours following administration. […] Metabolism of CDB-4124 by the liver provides the opportunity for liver damage and greatly reduces the concentration of the antiprogestin before it reaches the systemic circulation. Thus, alternative routes of administration of antiprogestins that avoid first pass metabolism such as, without limitation, intravenous, intramuscular, and sublingual, should allow antiprogestins to be absorbed directly into the systemic circulation and thereby provide a method for treating progestone-dependent conditions while avoiding liver toxicity. Administration routes which avoid first pass metabolism may also require less drug per dose to achieve the same therapeutic benefit relative to oral administration.
# [3] = Thermodynamic solubility (solid shaken in solvent at 37° C., filtrate by LC/UV); type: physicochemical
# Experimental: Briefly, 300 ul of solvent (ethanol, 0.1 M HCl or distilled H2O) were added to 14-16 mg of the solid compound (5 parallel measurements per sample, per solvent, mean concentrations 93-107 mM). The mixtures were shaken at 37° C. for 24 and 72 hours. Concentrations of the filtrates were determined by liquid chromatography with UV detector (LC/UV) with 3-point calibration.
# Crystal form was checked by X-ray powder diffraction (XRPD) after recovering the slurry at 24 and 72 hours. […] The exact cause of this observed phenomenon is not known.
# [4] = system: DMBA-induced breast tumors; experiment: DMBA-induced breast tumor pre-clinical study; type: in vivo, rodents; conditions: subcutaneous injection
# Experimental: Pre-clinical studies were performed on rodents with breast tumors induced by 7,12-Dimethylbenz(a)anthracene (DMBA).
# [5] = system: progesterone-induced endometrial proliferation; experiment: Anti-Clauberg study, vaginal vs oral (McPhail index); type: in vivo, rabbits
# Experimental: FIG. 4 compares the antiprogestational effects of three doses of CDB-4124 when delivered orally versus when delivered to the vaginal mucosa of estradiol-primed immature rabbits in the presence of progesterone, as measured by a decrease in the McPhail index. Treatment with progesterone alone (vehicle control) provided a baseline measurement of progestational activity.
# Another anti-Clauberg study was run in which immature estradiol-primed rabbits were administered progesterone alone (vehicle control) or were co-administered progesterone and three doses of CDB-4124 by either vaginal or oral administration. The inhibition of progesterone-induced endometrial proliferation at each dose was assayed. FIG. 3 illustrates the decrease in the McPhail index following increasing doses of CDB-4124 administered by either route. Maximal inhibition (i.e. a decrease in the McPhail index to 1.5) occurred at 0.2 mg/kg CDB-4124 when administered vaginally, compared to 0.8 mg/kg when administered orally.
# [6] = system: progesterone-induced endometrial proliferation; experiment: Anti-Clauberg study, subcutaneous vs oral; type: in vivo, rabbits
# Text: FIG. 3 illustrates a comparison of the inhibition of progesterone-induced endometrial proliferation in estradiol-primed immature rabbits following subcutaneous injection and oral administration of CDB-4124
# To determine whether the low circulating levels of CDB-4124 when administered locally could have any impact predictive of efficacy, an anti-Clauberg study was run in which immature estradiol-primed rabbits were coadministered progesterone and various doses of CDB-4124 by either subcutaneous or oral administration. At least 3 different highly trained individuals evaluated the rabbit uterus for glandular growth, for complexity and overall progesterone-induced “development”. The inhibition (by percentage) of progesterone-induced endometrial proliferation at each dose was assayed. […] However, maximal inhibition required a ˜8-fold increase in dosage when administered orally (i.e. 8 mg/kg). Importantly 8 mg/kg corresponds closely to the 50 mg/day dose of CDB-4124 administered to the female subjects described in Example 3.
# [7] = system: liver aminotransferases; experiment: Clinical trials of daily oral CDB-4124 (Proellex): liver toxicity / liver enzymes; type: in vivo, human
# Experimental: as §1
# To date, over 600 patients, including women with confirmed cases of endometriosis or uterine fibroids, have participated in double blind and open label clinical trials in which patients were administered daily oral capsules containing doses of 12.5 mg, 25 mg or 50 mg CDB-4124 (Proellex) for over one month. Of these patients, about 500 received Proellex and about 130 received a placebo. Of the patients receiving Proellex, about 190 received a dose of 50 mg CDB-4124 per day, about 260 received a dose of 25 mg CDB-4124 per day and about 55 received a dose of 12.5 mg per day.
# Liver enzymes were frequently monitored in participating subjects. The liver enzyme level at which the clinical trials would be discontinued was set at an increase in liver aminotransferases greater than, or equal to three times the Upper Limit of Normal (≧3×ULN).
# Of the nine subjects with a confirmed increase in liver enzymes≧3×ULN, seven were severe enough elevations to be reported to the FDA as SAEs. One of these seven subjects had been receiving a dose of 25 mg CDB-4124 per day; the remaining six subjects had been receiving a dose of 50 mg CDB-4124 per day. Liver enzymes≧3×ULN persisted in five of the nine subjects with a confirmed increase in liver enzymes≧3×ULN. These five subjects had previously been dosed with the 50 mg dose. One of these subjects is receiving oral medication for treatment of their liver condition. Clinical trials involving CDB-4124 at all doses were voluntarily suspended as a result of these SAEs and were subsequently placed on clinical hold by the United States Food and Drug Administration for safety reasons.
# [8] = system: animal hepatocytes; experiment: Metabolism in primary cultures of animal hepatocytes; type: in vitro ADME
# Experimental: as §2
# [9] = system: human hepatocytes; experiment: Metabolism in primary cultures of human hepatocytes; type: in vitro ADME
# Experimental: as §2
# [10] = Cmax after vaginal administration extrapolated from beagles to humans; type: in vivo; conditions: for Predicted Cmax for vaginal administration as percentage of the same dose administered orally: humans
# Experimental: FIG. 2 illustrates the actual Cmax observed for Proellex (CDB-4124) and its monodemethylated metabolite CDB-4453, following oral administration of CDB-4124 at 12.5 mg, 25 mg and 50 mg doses as well as the projected Cmax for 3 mg, 6 mg and 9 mg doses. FIG. 2 also illustrates the actual Cmax observed for Proellex (CDB-4124) and its monodemethylated metabolite CDB-4453, following vaginal administration of CDB-4124 at 12.5 mg, 25 mg and 50 mg doses.
# The maximum circulating concentrations (Cmax) of CDB-4124 obtained following vaginal administration to beagles were extrapolated to humans for the 12.5 mg, 25 mg and 50 mg doses actually administered during the Phase III clinical studies.
# Because a high concentration of the drug in the systemic circulation (and associated first pass metabolism of the drug) is not reached by local administration, avoidance of the severe liver toxicity observed in a small percentage of subjects following oral administration of CDB-4124 in previous Phase III clinical studies at doses of 25 and 50 mg is a surprising advantage of administering the drug locally. Similar advantages should inure to local administration of other antiprogestins.
compound,measurement,setting,value
CNc1ccc([C@H]2C[C@@]3(C)[C@@H](CC[C@]3(OC(C)=O)C(=O)COC)[C@@H]3CCC4=CC(=O)CCC4=C32)cc1 [CDB-4453],Metabolism after peak plasma concentration,[1],rapidly metabolized
same,Metabolism,[1],metabolized slowly
same,Peak plasma concentrations (Cmax),[1],relatively low
same,"Systemic exposure (AUC), local vs oral",[1],much lower
same,Maximum concentration for the 12.5 mg dose relative to the 50 mg dose,[2],25%
COCC(=O)[C@@]1(OC(C)=O)CC[C@H]2[C@@H]3CCC4=CC(=O)CCC4=C3[C@@H](c3ccc(N(C)C)cc3)C[C@@]21C [CDB-4124],solubility thermodynamic at 72 h,"[3]; 0.1M HCl, 24 h, read-out: Thermodynamic solubility, 0.1M HCl, Mean",53.09 µM
same,solubility thermodynamic at 72 h,"[3]; 0.1M HCl, 72 h, read-out: Thermodynamic solubility, 0.1M HCl, Mean",56.12 µM
same,solubility thermodynamic at 72 h,"[3]; distilled water, 24 h, read-out: Thermodynamic solubility, distilled water, Mean",7.10 µM
same,solubility thermodynamic at 72 h,"[3]; distilled water, 72 h, read-out: Thermodynamic solubility, distilled water, Mean",3.20 µM
same,"Thermodynamic solubility, Ethanol, Mean","[3]; ethanol, 24 h",36800 µM
same,"Thermodynamic solubility, Ethanol, Mean","[3]; ethanol, 72 h",34100 µM
same,Effect on quantity and size of DMBA-induced breast tumors,[4],effective in reducing the quantity and size of DMBA-induced breast tumors
same,McPhail index at maximal inhibition,[5]; 0.2 mg/kg vaginal or 0.8 mg/kg oral,1.5
same,Dose at which maximal inhibition occurred,[5]; oral,0.8 mg/kg
same,Dose at which maximal inhibition occurred,[5]; vaginal,0.2 mg/kg
same,Antiprogestational activity of vaginal delivery relative to the same oral dose,[5]; vaginal vs oral,four times the antiprogestational activity
same,Metabolism after peak plasma concentration,[1],rapidly metabolized
same,Metabolism,[1],metabolized slowly
same,Peak plasma concentrations (Cmax),[1],relatively low
same,"Systemic exposure (AUC), local vs oral",[1],much lower
same,Cmax,[2]; following oral administration,high
same,Monodemethylated metabolite detected (first pass metabolism),[2]; following oral administration,Large quantities
same,Tmax,[2]; following oral administration,1 to 2 h
same,Maximum concentration for the 12.5 mg dose relative to the 50 mg dose,[2],25%
same,Dose required for maximal inhibition,[6]; oral,8 mg/kg
same,"Increase in dosage required for maximal inhibition, oral vs subcutaneous",[6]; oral vs subcutaneous,~8 fold
same,Dose at which maximal inhibition was observed,[6]; subcutaneous,less than 1 mg/kg
same,Subjects with elevations reported as SAEs,[7]; 25 mg CDB-4124 per day,One
same,Subjects with elevations reported as SAEs,[7]; 50 mg CDB-4124 per day,six
same,Subjects with elevations severe enough to be reported as SAEs,[7]; all doses,seven
same,Subjects found to exhibit an increase in liver enzymes ≧3×ULN,"[7]; all doses, before repeat test",thirteen
same,Subjects with confirmed increase in liver enzymes ≧3×ULN,"[7]; all doses, confirmed by repeat test in 48 hours",nine
same,Adverse liver toxicity signals,"[7]; oral, 12.5 mg",no adverse liver toxicity signals different from placebo
same,Liver toxicity effects at 25 mg/day compared with 50 mg/day,"[7]; oral, 25 mg/day vs 50 mg/day",significantly lower in frequency and intensity
same,Women exhibiting severe liver toxicity,"[7]; oral, 50 mg/day",3-4%
same,Subjects in whom liver enzymes ≧3×ULN persisted,[7]; previously dosed with the 50 mg dose,five
same,Production of the mono-demethylated metabolite,[8],rapidly produce the mono-demethylated metabolite
same,Production of the mono-demethylated metabolite,[9],rapidly produce the mono-demethylated metabolite
same,Predicted Cmax for vaginal administration as percentage of the same dose administered orally,[10]; 12.5 mg dose,approximately 6.5%
same,Cmax with 12.5 mg vaginal dose relative to 50 mg oral dose,[10]; 12.5 mg vaginal vs 50 mg oral,2%
same,Predicted Cmax for vaginal administration as percentage of the same dose administered orally,[10]; 50 mg dose,approximately 2%
"CC(=O)O[C@]1(C(C)=O)CC[C@H]2[C@@H]3CCC4=CC(=O)CCC4=C3[C@@H](c3ccc(C(C)=O)cc3)C[C@@]21C [REP-4510, 17α-acetoxy-11β-(4-acetylphenyl)-19-norpregna-4,9-dien-3,20-dione]",solubility thermodynamic at 24 h,"[3]; organic solvent or mixture, thermodynamic from solid, ethanol, 24 h, read-out: Thermodynamic solubility, Ethanol, Mean",3300 µM
same,solubility thermodynamic at 72 h,"[3]; organic solvent or mixture, thermodynamic from solid, ethanol, 72 h, read-out: Thermodynamic solubility, Ethanol, Mean",2900 µM
same,solubility thermodynamic at 24 h,"[3]; simulated gastric fluid, thermodynamic from solid, 0.1M HCl, 24 h, read-out: Thermodynamic solubility, 0.1M HCl, Mean",0.5 µM
same,solubility thermodynamic at 72 h,"[3]; simulated gastric fluid, thermodynamic from solid, 0.1M HCl, 72 h, read-out: Thermodynamic solubility, 0.1M HCl, Mean",0.45 µM
same,solubility thermodynamic at 24 h,"[3]; thermodynamic from solid, distilled water, 24 h, read-out: Thermodynamic solubility, Distilled water, Mean",0.52 µM
same,solubility thermodynamic at 72 h,"[3]; thermodynamic from solid, distilled water, 72 h, read-out: Thermodynamic solubility, distilled water, Mean",0.44 µM
